Values belong to the compound of their own block, whether it stands above or below them. Activity calls are given as the source filed them.
How the values were obtained:
[1] = biological target: T1, Sentrin-specific protease 1 (Homo sapiens, UniProt Q9P0U3); assay: Dose response confirmation of small molecule inhibitors of the catalytic domain of the SUMO protease, SENP1 in a FRET assay.; assay type: functional; settings: read-out: IC50_Mean
[2] = HEp-2 cell cytotoxicity, dose response, cytotoxicity control for RSV inhibitor project, HTS (AID 2410); assay type: functional; settings: human respiratory syncytial virus
[3] = biological target: T1, Sentrin-specific protease 1; assay: potency of human SENP1 inhibitors, dose response, biochemical, kinetic FRET (AID 651697); assay type: functional; settings: read-out: IC50_Mean
[4] = biological target: T2, Methionyl-tRNA synthetase, putative (Trypanosoma brucei brucei, UniProt Q38C91); assay type: functional, Trypanosoma brucei brucei strain 927/4 GUTat10.1
T2 sequence (Q38C91 whole entry): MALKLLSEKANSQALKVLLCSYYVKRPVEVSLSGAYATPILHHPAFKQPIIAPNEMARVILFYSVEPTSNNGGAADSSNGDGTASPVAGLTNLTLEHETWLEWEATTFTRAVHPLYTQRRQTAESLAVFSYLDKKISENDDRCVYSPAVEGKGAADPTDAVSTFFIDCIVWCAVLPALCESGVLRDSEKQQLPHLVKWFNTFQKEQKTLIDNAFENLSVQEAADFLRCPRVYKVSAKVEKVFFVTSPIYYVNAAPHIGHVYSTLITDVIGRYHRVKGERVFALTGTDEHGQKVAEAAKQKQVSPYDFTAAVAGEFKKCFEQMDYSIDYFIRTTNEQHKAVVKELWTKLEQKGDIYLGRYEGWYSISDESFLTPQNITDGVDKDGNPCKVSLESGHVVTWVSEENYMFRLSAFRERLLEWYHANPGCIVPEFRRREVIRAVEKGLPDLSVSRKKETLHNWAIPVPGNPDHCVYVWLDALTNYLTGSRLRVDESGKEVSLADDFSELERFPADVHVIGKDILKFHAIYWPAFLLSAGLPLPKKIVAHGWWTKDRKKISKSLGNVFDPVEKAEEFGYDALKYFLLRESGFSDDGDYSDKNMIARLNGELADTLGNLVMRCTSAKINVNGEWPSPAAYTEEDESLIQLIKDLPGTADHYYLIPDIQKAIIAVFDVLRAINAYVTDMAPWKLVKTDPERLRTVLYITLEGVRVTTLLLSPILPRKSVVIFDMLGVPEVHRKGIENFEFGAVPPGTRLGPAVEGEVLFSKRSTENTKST

[5] = Counterscreen for inhibitors of Trypanosoma brucei methionyl tRNA synthetase (MetRS): Luminescence-based cell-based high throughput dose response assay to identify compounds that are cytotoxic to Jurkat human T lymphocyte cells.; assay type: functional
[6] = biological target: T2, Methionyl-tRNA synthetase, putative; assay type: functional, Trypanosoma brucei brucei strain 927/4 GUTat10.1; remark: listed apart in the source
[7] = biological target: T3, Sentrin-specific protease 8 (Homo sapiens, UniProt Q96LD8); assay type: functional
T3 sequence (Q96LD8 whole entry): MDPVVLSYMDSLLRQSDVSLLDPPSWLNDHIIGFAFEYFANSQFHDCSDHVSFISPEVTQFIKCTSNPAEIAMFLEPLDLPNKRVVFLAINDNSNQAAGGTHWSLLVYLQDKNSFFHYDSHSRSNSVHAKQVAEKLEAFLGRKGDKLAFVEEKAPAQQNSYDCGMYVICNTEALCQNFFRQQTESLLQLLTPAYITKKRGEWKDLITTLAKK

[8] = biological target: T3, Sentrin-specific protease 8; assay type: functional; remark: listed apart in the source
Caspase-3 = biological target: T4, Caspase-3 (Homo sapiens, UniProt P42574); assay: Dose-response confirmation of uHTS inhibitor hits of Sentrin-Specific Protease 8 in a Caspase-3 Fluorescence assay.; assay type: functional
T4 sequence (P42574 whole entry): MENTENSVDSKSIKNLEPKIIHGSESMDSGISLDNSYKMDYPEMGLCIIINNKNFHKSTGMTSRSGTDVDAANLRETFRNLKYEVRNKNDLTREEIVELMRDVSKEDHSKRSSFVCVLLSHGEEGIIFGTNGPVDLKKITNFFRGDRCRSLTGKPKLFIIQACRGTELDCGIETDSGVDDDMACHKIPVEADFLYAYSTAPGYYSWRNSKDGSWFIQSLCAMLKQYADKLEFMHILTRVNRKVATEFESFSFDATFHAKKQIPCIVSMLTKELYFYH

Caspase-6 = biological target: T5, Caspase-6 (Homo sapiens, UniProt P55212); assay: human caspase-6 inhibitors, dose response, biochemical, VEID-R110 fluorescence, cherry-pick (AID 720632)
T5 sequence (P55212 whole entry): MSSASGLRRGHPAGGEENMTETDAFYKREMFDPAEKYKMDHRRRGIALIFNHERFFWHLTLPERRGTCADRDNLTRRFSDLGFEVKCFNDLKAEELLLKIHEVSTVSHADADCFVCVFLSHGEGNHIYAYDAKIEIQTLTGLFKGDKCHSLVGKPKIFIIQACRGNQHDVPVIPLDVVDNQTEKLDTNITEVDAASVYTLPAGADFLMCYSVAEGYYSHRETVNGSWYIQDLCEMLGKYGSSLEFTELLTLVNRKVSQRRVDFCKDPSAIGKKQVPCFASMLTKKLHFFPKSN

[9] = HEK293 cell viability, dose response, counter-screen for EBV LMP1 inhibitor project, dry powder, set 2 (AID 624374); assay type: functional
[10] = lymphoblastoid cell cytotoxicity, dose response, cytotoxicity control, plate reader, dry powder, set 2 (AID 624367); assay type: functional
[11] = HeLa cell cytotoxicity, dose response, cytotoxicity control for MgcRacGAP inhibitor project (AID 624300); assay type: functional
[12] = biological target: T6, Rac GTPase-activating protein 1 (Homo sapiens, UniProt Q9H0H5); assay: MgcRacGAP GTPase-activating activity inhibitors, confirmation, biochemical, ADP Hunter fluorescence, primary and confirmatory (AID 624330); assay type: functional
T6 sequence (Q9H0H5 whole entry): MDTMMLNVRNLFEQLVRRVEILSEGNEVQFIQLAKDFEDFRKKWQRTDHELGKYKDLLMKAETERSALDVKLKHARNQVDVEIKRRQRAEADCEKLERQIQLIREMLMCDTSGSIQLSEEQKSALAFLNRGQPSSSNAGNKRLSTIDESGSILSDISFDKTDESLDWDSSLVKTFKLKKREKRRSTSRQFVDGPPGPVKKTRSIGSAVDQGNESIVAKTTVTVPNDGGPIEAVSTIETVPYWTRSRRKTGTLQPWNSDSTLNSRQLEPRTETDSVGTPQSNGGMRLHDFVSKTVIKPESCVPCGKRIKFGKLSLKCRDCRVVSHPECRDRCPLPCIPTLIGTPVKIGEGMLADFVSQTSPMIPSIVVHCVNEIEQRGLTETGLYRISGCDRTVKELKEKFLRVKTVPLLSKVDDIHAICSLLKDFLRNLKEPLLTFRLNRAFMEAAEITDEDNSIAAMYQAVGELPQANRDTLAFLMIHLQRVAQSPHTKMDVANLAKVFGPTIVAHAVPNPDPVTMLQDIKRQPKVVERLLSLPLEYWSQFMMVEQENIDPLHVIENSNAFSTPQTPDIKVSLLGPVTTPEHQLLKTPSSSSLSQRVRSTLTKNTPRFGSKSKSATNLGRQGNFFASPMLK

T1 sequence (Q9P0U3 whole entry, the tested form may be a part): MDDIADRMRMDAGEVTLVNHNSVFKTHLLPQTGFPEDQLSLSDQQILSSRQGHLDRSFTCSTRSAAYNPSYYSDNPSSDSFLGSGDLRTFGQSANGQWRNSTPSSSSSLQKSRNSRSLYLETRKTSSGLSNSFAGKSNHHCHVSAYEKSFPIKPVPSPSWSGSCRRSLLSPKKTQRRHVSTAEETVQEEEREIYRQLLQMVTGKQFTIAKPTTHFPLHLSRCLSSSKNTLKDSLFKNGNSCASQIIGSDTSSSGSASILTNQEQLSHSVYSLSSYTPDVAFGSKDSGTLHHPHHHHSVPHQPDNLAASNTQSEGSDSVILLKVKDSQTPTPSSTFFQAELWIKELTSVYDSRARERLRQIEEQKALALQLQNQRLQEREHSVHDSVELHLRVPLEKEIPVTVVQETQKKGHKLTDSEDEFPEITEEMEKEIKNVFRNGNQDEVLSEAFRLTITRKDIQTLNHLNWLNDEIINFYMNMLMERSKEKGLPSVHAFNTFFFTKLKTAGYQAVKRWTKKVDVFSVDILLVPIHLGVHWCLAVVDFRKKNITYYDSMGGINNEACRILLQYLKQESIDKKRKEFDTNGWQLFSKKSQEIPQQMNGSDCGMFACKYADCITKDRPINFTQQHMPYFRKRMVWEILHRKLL

IC50 [1]: 8.3 µM (active)
IC50 [3]: 10.5 µM (active)
SMILES: COc1ccc(-c2ccc3c(c2)S(=O)(=O)c2cccc(C(=O)NCCOc4ccccc4)c2C3=O)cc1OC
CC50 [2]: 46.1 µM (active)

SMILES: O=C(NCCCCc1ccccc1)Nc1cccc(F)c1
IC50 [4]: 15.5 µM (inactive)
IC50 [5]: 83.3 µM (inactive)
IC50 [6]: 11.9 µM (inactive)

IC50 (Caspase-3): 99.7 µM (inactive)
AC50 (Caspase-6): 40.7 µM (active)
SMILES: O=C(COC(=O)c1ccc([N+](=O)[O-])o1)NCc1ccc(F)cc1
IC50 [7]: 11.7 µM (active)
IC50 [8]: 6.4 µM (active)

SMILES: Cc1noc(C)c1S(=O)(=O)Nc1ccc2c(c1)C(=O)N([C@@H](C)CO)C[C@@H](C)[C@@H](CN(C)Cc1ccc(C(F)(F)F)cc1)OCCCC[C@H](C)O2
AbsAC35 [9]: 54.05 µM
AbsAC35 [10]: 52.95 µM

IC50 [12]: 54.5 µM (active)
SMILES: COc1cc(/C=N/NC(=O)NC23CC4CC(CC(C4)C2)C3)ccc1O
CC50 [11]: 100 µM (active)

Source: ChEMBL document CHEMBL1201862, “PubChem BioAssay data set” (2004)
